According to PMC10056257 (Journal of medicinal chemistry, 2023):
Marks after values point to notes of the source that are not given here.

Columns and labels:
[1] = system: S. aureus USA 300 JE2; experiment: MIC, broth microdilution; format: cell-based, Staphylococcus aureus
[2] = system: Acinetobacter baumannii 2208; experiment: MIC, broth microdilution; format: cell-based; conditions: A. baumannii 2208
[3] = system: Escherichia coli K12; experiment: MIC, broth microdilution; format: cell-based; conditions: E. coli K12
[4] = system: Pseudomonas aeruginosa PA01; experiment: MIC, broth microdilution; format: cell-based; conditions: P. aeruginosa PA01
[5] = system: E. coli nonpathogenic ATCC MG1655; experiment: MIC determination; format: cell-based, Escherichia coli
[6] = system: Lactobacillus rhamnosus CGMCC 1.3724; experiment: MIC against L. rhamnosus; format: cell-based; conditions: L. rhamnosus CGMCC 1.3724
[7] = system: Lactobacillus plantarum DSM 20174; experiment: MIC against L. plantarum; format: cell-based; conditions: L. plantarum DSM 20174
[8] = system: Bacteroides thetaiotaomicron DSM 2079; experiment: MIC against anaerobic bacteria; format: cell-based; conditions: B. thetaiotaomicron DSM 2079, anaerobic
[9] = system: Anaerostipes caccae DSM 14662; experiment: MIC against anaerobic bacteria; format: cell-based; conditions: A. caccae DSM 14662, anaerobic
[10] = Simulated intestinal fluid stability; format: in vitro ADME; conditions: SIF pH 7.60 with pancreatin, 24 h
[11] = system: Methicillin-resistant S. aureus (MRSA) ClpX; conditions: read-out: IC50, ClpX ATPase activity; cited from earlier work
[12] = system: S. typhimurium TA100; conditions: positive control, TA100, S9−, 2.5 μg/plate

In the case of `N#Cc1ccccc1C1Sc2ccccc2NC2=C1C(=O)c1ccccc12` (stereo not shown) [5a, 2-(12-Oxo-11,12-dihydro-5H-benzo[b]indeno[1,2-e][1,4]thiazepin-11-yl)benzonitrile], the MIC [1] is reported as “inactive”, the MIC [2] is reported as “inactive” and the MIC [3] is reported as “inactive”. For the same compound, the MIC [4] was “inactive”, the MIC [5] was “completely inactive” and the MIC [6] was “no antibacterial activity”. For the same compound, the MIC [7] was “no antibacterial activity”, the MIC [8] was “completely inactive” and the MIC [9] was “completely inactive”. For the same compound, the “percentage of drug remaining” value [10] was “around 85%”.
With `CC[C@H]1OC(=O)[C@H](C)[C@@H](O[C@H]2C[C@@](C)(OC)[C@@H](O)[C@H](C)O2)[C@H](C)[C@@H](O[C@@H]2O[C@H](C)C[C@H](N(C)C)[C@H]2O)[C@](C)(O)C[C@@H](C)CN(C)[C@H](C)[C@@H](O)[C@]1(C)O` [AZM, azithromycin, reference compound] the MIC [9] was “no susceptibility”.
For `O=C1C2=C(Nc3ccccc3SC2c2cccc(O)c2)c2ccccc21` (stereo not shown) [compound 334, 11-(3-Hydroxyphenyl)-5,11-dihydro-12H-benzo[b]indeno[1,2-e][1,4]thiazepin-12-one], the IC50 [11] is given as 800 nM.
In the case of Sodium azide, the number of revertants/plate [12] is reported as 260.70 ± 15.30^e revertants/plate.
